Results taken from the NIST ThermoML archive (doi:10.1021/je200710t).
± gives the expanded uncertainty stated by the source.

Tests used:
[1] = for mass density / viscosity: 101.33 kPa, Liquid; for Glass transition temperature: DTA
[2] = refractive index (Na D-line) (dimensionless); conditions: 101.33 kPa, Liquid, Standard Abbe refractometry

mass density ([1]; 298.15 K) [kg/m3] | mass density ([1]; 303.15 K) [kg/m3] | mass density ([1]; 308.15 K) [kg/m3] | mass density ([1]; 313.15 K) [kg/m3] | mass density ([1]; 318.15 K) [kg/m3] | mass density ([1]; 323.15 K) [kg/m3] | viscosity ([1]; 323.15 K) [mPa·s] | mass density ([1]; 328.15 K) [kg/m3] | viscosity ([1]; 328.15 K) [mPa·s] | mass density ([1]; 333.15 K) [kg/m3] | viscosity ([1]; 333.15 K) [mPa·s] | mass density ([1]; 338.15 K) [kg/m3] | viscosity ([1]; 338.15 K) [mPa·s] | mass density ([1]; 343.15 K) [kg/m3] | viscosity ([1]; 343.15 K) [mPa·s] | mass density ([1]; 348.15 K) [kg/m3] | viscosity ([1]; 348.15 K) [mPa·s] | mass density ([1]; 353.15 K) [kg/m3] | viscosity ([1]; 353.15 K) [mPa·s] | Glass transition temperature [1] [°C] | other results | Structure (SMILES)
1255.05 ± 3.5 | 1252.2 ± 3.5 | 1249.38 ± 3.5 | 1246.58 ± 3.5 | 1243.81 ± 3.4 | 1241.05 ± 3.4 | 6721 ± 890 | 1238.32 ± 3.4 | 4213 ± 500 | 1235.59 ± 3.4 | 2708 ± 290 | 1232.86 ± 3.3 | 1817 ± 180 | 1230.13 ± 3.3 | 1245 ± 110 | 1227.41 ± 3.3 | 873 ± 68 | 1224.57 ± 3.3 | 632 ± 44 | 14.50 ± 4 | mass density ([1]; 293.15 K): 1257.9 ± 3.6 kg/m3; viscosity ([1]; 303.15 K): 62813 ± 12000 mPa·s; viscosity ([1]; 308.15 K): 33772 ± 5900 mPa·s; viscosity ([1]; 313.15 K): 19046 ± 3100 mPa·s; viscosity ([1]; 318.15 K): 11119 ± 1600 mPa·s; refractive index ([2]; 293.15 K): 1.54996 ± 0.00052; refractive index ([2]; 298.15 K): 1.54847 ± 0.00052; refractive index ([2]; 303.15 K): 1.54699 ± 0.00052; refractive index ([2]; 308.15 K): 1.54554 ± 0.00052; refractive index ([2]; 313.15 K): 1.54412 ± 0.00052; refractive index ([2]; 318.15 K): 1.54277 ± 0.00052; refractive index ([2]; 323.15 K): 1.54133 ± 0.00052; refractive index ([2]; 328.15 K): 1.53985 ± 0.00052; refractive index ([2]; 333.15 K): 1.53847 ± 0.00052 | N#CCCn1cc[n+](CCO)c1.[Cl-] [1-(2-cyanoethyl)-3-(2-hydroxyethyl)-1H-imidazolium chloride]
1202.67 ± 2.5 | 1200.28 ± 2.5 | 1197.33 ± 2.5 | 1194.37 ± 2.5 | 1191.42 ± 2.4 | 1188.5 ± 2.4 | 95152 ± 19000 | 1185.59 ± 2.4 | 42665 ± 7800 | 1182.69 ± 2.4 | 20463 ± 3300 | 1179.8 ± 2.4 | 10434 ± 1500 | 1176.88 ± 2.3 | 5635 ± 720 | 1174.01 ± 2.3 | 3190 ± 360 | 1171.16 ± 2.3 | 1958 ± 190 | 16.21 ± 4 | – | N#CCCn1cc[n+](Cc2ccccc2)c1.[Cl-] [1-(2-cyanoethyl)-3-(phenylmethyl)-1H-imidazolium chloride]
1170.79 ± 2.2 | 1167.79 ± 2.2 | 1164.8 ± 2.2 | 1161.84 ± 2.1 | 1158.88 ± 2.1 | 1155.93 ± 2.1 | 1314 ± 120 | 1152.91 ± 2.1 | 873 ± 68 | 1150.01 ± 2.1 | 599 ± 40 | 1147.11 ± 2 | 423 ± 25 | 1144.22 ± 2 | 306 ± 15 | 1141.32 ± 2 | 226 ± 9 | 1138.42 ± 2 | 171 ± 6 | -1.48 ± 4 | mass density ([1]; 293.15 K): 1173.79 ± 2.2 kg/m3; viscosity ([1]; 298.15 K): 17544 ± 2800 mPa·s; viscosity ([1]; 303.15 K): 10294 ± 1500 mPa·s; viscosity ([1]; 308.15 K): 5761 ± 740 mPa·s; viscosity ([1]; 313.15 K): 3316 ± 380 mPa·s; viscosity ([1]; 318.15 K): 2046 ± 200 mPa·s; refractive index ([2]; 293.15 K): 1.54731 ± 0.00043; refractive index ([2]; 298.15 K): 1.54603 ± 0.00043; refractive index ([2]; 303.15 K): 1.54478 ± 0.00043; refractive index ([2]; 308.15 K): 1.54339 ± 0.00043; refractive index ([2]; 313.15 K): 1.54208 ± 0.00043; refractive index ([2]; 318.15 K): 1.54072 ± 0.00043; refractive index ([2]; 323.15 K): 1.53945 ± 0.00043; refractive index ([2]; 328.15 K): 1.53813 ± 0.00043; refractive index ([2]; 333.15 K): 1.53682 ± 0.00043 | C=CC[n+]1ccn(CCC#N)c1.[Cl-] [3-allyl-1-(2-cyanoethyl)-1H-imidazolium chloride]
1129.35 ± 3.2 | 1126.15 ± 3.2 | 1122.93 ± 3.2 | 1119.66 ± 3.1 | 1116.49 ± 3.1 | 1113.34 ± 3.1 | 314 ± 16 | 1110.18 ± 3 | 224 ± 10 | 1107.03 ± 3 | 164 ± 6 | 1103.87 ± 3 | 123 ± 3 | 1100.72 ± 2.9 | 94 ± 2 | 1097.57 ± 2.9 | 73 ± 1 | 1094.44 ± 2.9 | 58 ± 1 | -5.23 ± 4 | mass density ([1]; 293.15 K): 1132.55 ± 3.3 kg/m3; viscosity ([1]; 293.15 K): 4707 ± 580 mPa·s; viscosity ([1]; 298.15 K): 2637 ± 280 mPa·s; viscosity ([1]; 303.15 K): 1612 ± 150 mPa·s; viscosity ([1]; 308.15 K): 1020 ± 84 mPa·s; viscosity ([1]; 313.15 K): 668 ± 48 mPa·s; viscosity ([1]; 318.15 K): 451 ± 27 mPa·s; refractive index ([2]; 293.15 K): 1.52575 ± 0.00062; refractive index ([2]; 298.15 K): 1.5243 ± 0.00062; refractive index ([2]; 303.15 K): 1.52287 ± 0.00062; refractive index ([2]; 308.15 K): 1.52139 ± 0.00062; refractive index ([2]; 313.15 K): 1.51992 ± 0.00062; refractive index ([2]; 318.15 K): 1.51846 ± 0.00062; refractive index ([2]; 323.15 K): 1.51707 ± 0.00062; refractive index ([2]; 328.15 K): 1.5156 ± 0.00062; refractive index ([2]; 333.15 K): 1.51418 ± 0.00062 | CCCC[n+]1ccn(CCC#N)c1.[Cl-] [3-butyl-1-(2-cyanoethyl)-1H-imidazol-3-ium chloride]
